Test results: publication PMC11240139, “Exploring the antitumor potential of novel quinoline derivatives via tubulin polymerization inhibition in breast cancer; design, synthesis and molecular docking” (RSC Advances, 2024)

Assays:
LOX IMVI (melanoma) = experiment: NCI-60 SRB cytotoxicity screen; assay type: cell-based; conditions: Homo sapiens, single dose 10 μM, read-out: growth inhibition (GI%)
UO-31 (renal cancer) = experiment: NCI-60 SRB cytotoxicity screen; assay type: cell-based; conditions: Homo sapiens; UO-31, single dose 10 μM; read-out: growth inhibition (GI%)
[1] = test system: HOP-92 (non-small cell lung cancer); experiment: NCI-60 SRB cytotoxicity screen; assay type: cell-based; conditions: Homo sapiens; HOP-92, single dose 10 μM; read-out: growth inhibition (GI%)
[2] = test system: NCI-H226 (non-small cell lung cancer); experiment: NCI-60 SRB cytotoxicity screen; assay type: cell-based; conditions: Homo sapiens; NCI-H226, single dose 10 μM; read-out: growth inhibition (GI%)
A498 (renal cancer) = experiment: NCI-60 SRB cytotoxicity screen; assay type: cell-based; conditions: Homo sapiens; A498, single dose 10 μM; read-out: growth inhibition (GI%)
CCRF-CEM (leukemia) = experiment: NCI-60 SRB cytotoxicity screen; assay type: cell-based; conditions: Homo sapiens, single dose 10 μM, read-out: growth inhibition (GI%)
OVCAR-4 (ovarian cancer) = experiment: NCI-60 SRB cytotoxicity screen; assay type: cell-based; conditions: Homo sapiens; OVCAR-4, single dose 10 μM; read-out: growth inhibition (GI%)
T-47D (breast cancer) = experiment: NCI-60 SRB cytotoxicity screen; assay type: cell-based; conditions: Homo sapiens, T47D, single dose 10 μM, read-out: growth inhibition (GI%)
UACC-257 (melanoma) = experiment: NCI-60 SRB cytotoxicity screen; assay type: cell-based; conditions: Homo sapiens; UACC-257, single dose 10 μM; read-out: growth inhibition (GI%)
KM12 (colon cancer) = experiment: NCI-60 SRB cytotoxicity screen; assay type: cell-based; conditions: Homo sapiens; KM12, single dose 10 μM; read-out: growth inhibition (GI%)
SK-MEL-5 (melanoma) = experiment: NCI-60 SRB cytotoxicity screen; assay type: cell-based; conditions: Homo sapiens; SK-MEL-5, single dose 10 μM; read-out: growth inhibition (GI%)
[3] = test system: MDA-MB-468 (breast cancer); experiment: NCI-60 SRB cytotoxicity screen; assay type: cell-based; conditions: Homo sapiens; MDA-MB-468, single dose 10 μM; read-out: growth inhibition (GI%)
Method in brief: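 NCI-60 single-dose (10^−5 M) screen in MDA-MB-468 with SRB protein-stain read-out after 48 h exposure; cells TCA-fixed and absorbance read at 540 nm. Reported as GI%, with compounds meeting NCI activity criteria then run at five doses (0.01–100 μM).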

MDA-MB-435 (melanoma) = experiment: NCI-60 SRB cytotoxicity screen; assay type: cell-based; conditions: Homo sapiens, MDA-MB-435, read-out: growth inhibition (GI%);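 also: growth inhibition in percent at a single 10 µM dose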
[4] = test system: HOP-62 (non-small cell lung cancer); experiment: NCI-60 SRB cytotoxicity screen; assay type: cell-based; conditions: Homo sapiens; HOP-62, single dose 10 μM; read-out: growth inhibition (GI%)
[5] = test system: NCI-H460 (non-small cell lung cancer); experiment: NCI-60 SRB cytotoxicity screen; assay type: cell-based; conditions: Homo sapiens; NCI-H460, single dose 10 μM; read-out: growth inhibition (GI%)
SN12C (renal cancer) = experiment: NCI-60 SRB cytotoxicity screen; assay type: cell-based; conditions: Homo sapiens, single dose 10 μM, read-out: growth inhibition (GI%)
SR (leukemia) = experiment: NCI-60 SRB cytotoxicity screen; assay type: cell-based; conditions: single dose 10 μM, read-out: growth inhibition (GI%)
IGROV1 (ovarian cancer) = experiment: NCI-60 SRB cytotoxicity screen; assay type: cell-based; conditions: Homo sapiens, IGROV-1; IGROV1, single dose 10 μM; read-out: growth inhibition (GI%)
HS 578T (breast cancer) = experiment: NCI-60 SRB cytotoxicity screen; assay type: cell-based; conditions: Homo sapiens, single dose 10 μM, read-out: growth inhibition (GI%)
OVCAR-8 (ovarian cancer) = experiment: NCI-60 SRB cytotoxicity screen; assay type: cell-based; conditions: Homo sapiens; OVCAR-8, single dose 10 μM; read-out: growth inhibition (GI%)
M14 (melanoma) = experiment: NCI-60 SRB cytotoxicity screen; assay type: cell-based; conditions: Homo sapiens; M14, single dose 10 μM; read-out: growth inhibition (GI%)
SF-295 (CNS cancer) = experiment: NCI-60 SRB cytotoxicity screen; assay type: cell-based; conditions: Homo sapiens; SF-295, single dose 10 μM; read-out: growth inhibition (GI%)
[6] = test system: MDA-MB-231/ATCC (breast cancer); experiment: NCI-60 SRB cytotoxicity screen; assay type: cell-based; conditions: Homo sapiens, MDA-MB-231, read-out: growth inhibition (GI%);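 also: growth inhibition in percent at a single 10 µM dose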
DU-145 (prostate cancer) = experiment: NCI-60 SRB cytotoxicity screen; assay type: cell-based; conditions: Homo sapiens; DU-145, single dose 10 μM; read-out: growth inhibition (GI%)
RPMI-8226 (leukemia) = experiment: NCI-60 SRB cytotoxicity screen; assay type: cell-based; conditions: Homo sapiens; RPMI-8226, single dose 10 μM; read-out: growth inhibition (GI%)
HT29 (colon cancer) = experiment: NCI-60 SRB cytotoxicity screen; assay type: cell-based; conditions: Homo sapiens, HT-29; HT29, single dose 10 μM; read-out: growth inhibition (GI%)

**Q.** Which results are given for `CCc1cccc2cc(C=CC(=O)c3cc(OC)c(OC)c(OC)c3)c(Cl)nc12` [Compound 3c, 3-(2-Chloro-8-ethylquinolin-3-yl)-1-(3,4,5-trimethoxyphenyl)prop-2-en-1-one]?
**A.** inhibition at 10 µM (LOX IMVI (melanoma)): 72%; inhibition at 10 µM (UO-31 (renal cancer)): 45%; inhibition at 10 µM [1]: 26.8%; inhibition at 10 µM [2]: > 100%; inhibition at 10 µM (A498 (renal cancer)): < 10%; inhibition at 10 µM (CCRF-CEM (leukemia)): 87.8%; inhibition at 10 µM (OVCAR-4 (ovarian cancer)): 42%; melting point: 140 to 142 °C; inhibition at 10 µM (T-47D (breast cancer)): 72.8%; inhibition at 10 µM (UACC-257 (melanoma)): 43.6%; inhibition at 10 µM (KM12 (colon cancer)): 80.7%; inhibition at 10 µM (SK-MEL-5 (melanoma)): 39.9%; inhibition at 10 µM [3]: 61.1%; inhibition at 10 µM (MDA-MB-435 (melanoma)): 59.2%; inhibition at 10 µM [4]: < 10%; inhibition at 10 µM [5]: 18.4%; inhibition at 10 µM (SN12C (renal cancer)): 42.3%; inhibition at 10 µM (SR (leukemia)): 61.5%; inhibition at 10 µM (IGROV1 (ovarian cancer)): < 10%; inhibition at 10 µM (HS 578T (breast cancer)): < 10%; inhibition at 10 µM (OVCAR-8 (ovarian cancer)): 84%; inhibition at 10 µM (M14 (melanoma)): 31.9%; inhibition at 10 µM (SF-295 (CNS cancer)): 31.3%; inhibition at 10 µM [6]: 39.5%; inhibition at 10 µM (DU-145 (prostate cancer)): 29%; inhibition at 10 µM (RPMI-8226 (leukemia)): 78.2%; inhibition at 10 µM (HT29 (colon cancer)): 77.4%

**Q.** With `CCc1cccc2cc(-c3cc(-c4ccc(OC)cc4)[nH]c(=S)c3C#N)c(Cl)nc12` [Compound 5a, 4-(2-Chloro-8-ethylquinolin-3-yl)-6-(4-methoxyphenyl)-2-thioxo-1,2-dihydropyridine-3-carbonitrile] as the compound, how does the inhibition at 10 µM (LOX IMVI (melanoma)) read?
**A.** < 10%

**Q.** What about the inhibition at 10 µM (UO-31 (renal cancer)) of the same compound?
**A.** 19.7%

**Q.** What about the inhibition at 10 µM [1] of the same compound?
**A.** 36.2%

**Q.** And the inhibition at 10 µM [2]?
**A.** 15.9%

**Q.** What about the inhibition at 10 µM (A498 (renal cancer)) of the same compound?
**A.** < 10%

**Q.** And the inhibition at 10 µM (CCRF-CEM (leukemia))?
**A.** < 10%

**Q.** What about the inhibition at 10 µM (OVCAR-4 (ovarian cancer)) of the same compound?
**A.** 24.5%

**Q.** And the melting point?
**A.** 290 to 292 °C

**Q.** What about the inhibition at 10 µM (T-47D (breast cancer)) of the same compound?
**A.** 12.7%

**Q.** What about the inhibition at 10 µM (UACC-257 (melanoma)) of the same compound?
**A.** < 10%

**Q.** And the inhibition at 10 µM (KM12 (colon cancer))?
**A.** < 10%

**Q.** And the inhibition at 10 µM (SK-MEL-5 (melanoma))?
**A.** < 10%

**Q.** And the inhibition at 10 µM [3]?
**A.** 18.7%

**Q.** What about the inhibition at 10 µM (MDA-MB-435 (melanoma)) of the same compound?
**A.** < 10%

**Q.** And the inhibition at 10 µM [4]?
**A.** < 10%

**Q.** What about the inhibition at 10 µM [5] of the same compound?
**A.** < 10%

**Q.** What about the inhibition at 10 µM (SN12C (renal cancer)) of the same compound?
**A.** 10.3%

**Q.** And the inhibition at 10 µM (SR (leukemia))?
**A.** 11.6%

**Q.** And the inhibition at 10 µM (IGROV1 (ovarian cancer))?
**A.** 12.9%

**Q.** And the inhibition at 10 µM (HS 578T (breast cancer))?
**A.** 19.8%

**Q.** What about the inhibition at 10 µM (OVCAR-8 (ovarian cancer)) of the same compound?
**A.** 10.1%

**Q.** And the inhibition at 10 µM (M14 (melanoma))?
**A.** < 10%

**Q.** What about the inhibition at 10 µM (SF-295 (CNS cancer)) of the same compound?
**A.** 13.8%

**Q.** What about the inhibition at 10 µM [6] of the same compound?
**A.** 18.1%

**Q.** What about the inhibition at 10 µM (DU-145 (prostate cancer)) of the same compound?
**A.** < 10%

**Q.** And the inhibition at 10 µM (RPMI-8226 (leukemia))?
**A.** 15.7%

**Q.** What about the inhibition at 10 µM (HT29 (colon cancer)) of the same compound?
**A.** < 10%

**Q.** Which inhibition at 10 µM (LOX IMVI (melanoma)) does the source give for `CCc1cccc2cc(-c3cc(-c4cc(OC)c(OC)c(OC)c4)[nH]c(=S)c3C#N)c(Cl)nc12` [Compound 5c, 4-(2-Chloro-8-ethylquinolin-3-yl)-2-thioxo-6-(3,4,5-trimethoxyphenyl)-1,2-dihydropyridine-3-carbonitrile] here?
**A.** 38.3%

**Q.** What about the inhibition at 10 µM (UO-31 (renal cancer)) of the same compound?
**A.** 45.2%

**Q.** And the inhibition at 10 µM [1]?
**A.** 77.4%

**Q.** And the inhibition at 10 µM [2]?
**A.** 63.3%

**Q.** What about the inhibition at 10 µM (A498 (renal cancer)) of the same compound?
**A.** 18.8%

**Q.** And the inhibition at 10 µM (CCRF-CEM (leukemia))?
**A.** 57.6%

**Q.** What about the inhibition at 10 µM (OVCAR-4 (ovarian cancer)) of the same compound?
**A.** 41.6%

**Q.** What about the melting point of the same compound?
**A.** 279 to 281 °C

**Q.** And the inhibition at 10 µM (T-47D (breast cancer))?
**A.** 60.6%

**Q.** And the inhibition at 10 µM (UACC-257 (melanoma))?
**A.** 20.1%

**Q.** And the inhibition at 10 µM (KM12 (colon cancer))?
**A.** 37.2%

**Q.** What about the inhibition at 10 µM (SK-MEL-5 (melanoma)) of the same compound?
**A.** 52.2%

**Q.** What about the inhibition at 10 µM [3] of the same compound?
**A.** 50.5%

**Q.** And the inhibition at 10 µM (MDA-MB-435 (melanoma))?
**A.** 24.9%

**Q.** And the inhibition at 10 µM [4]?
**A.** 10.6%

**Q.** And the inhibition at 10 µM [5]?
**A.** 21.8%

**Q.** And the inhibition at 10 µM (SN12C (renal cancer))?
**A.** 39.7%

**Q.** And the inhibition at 10 µM (SR (leukemia))?
**A.** 49%

**Q.** And the inhibition at 10 µM (IGROV1 (ovarian cancer))?
**A.** 33.4%

**Q.** What about the inhibition at 10 µM (HS 578T (breast cancer)) of the same compound?
**A.** 32.7%

**Q.** And the inhibition at 10 µM (OVCAR-8 (ovarian cancer))?
**A.** 36.7%

**Q.** What about the inhibition at 10 µM (M14 (melanoma)) of the same compound?
**A.** 31.2%

**Q.** What about the inhibition at 10 µM (SF-295 (CNS cancer)) of the same compound?
**A.** 31%

**Q.** And the inhibition at 10 µM [6]?
**A.** 52.5%

**Q.** What about the inhibition at 10 µM (DU-145 (prostate cancer)) of the same compound?
**A.** 32.3%

**Q.** And the inhibition at 10 µM (RPMI-8226 (leukemia))?
**A.** 63.1%

**Q.** What about the inhibition at 10 µM (HT29 (colon cancer)) of the same compound?
**A.** 20.4%
